Consider seven compounds from patent US20100105729A1, “ARYL-SUBSTITUTED HETEROCYCLIC PDE4 INHIBITORS AS ANTI-INFLAMMATORY AGENTS” (KALYPSYS, INC., priority 2006, published 2010).

One assay deals with T1, PDE4B (Homo sapiens, UniProt Q07343).
T1 construct: hexa-histidine (His6) (N); made in house
Kind of assay: PDE4 IMAP Assay. It counts as biochemical. To be noted: catalytic domain of PDE4B, fluorescence polarization. An outline of the steps:
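His-tagged PDE4B catalytic domain was preincubated with compound for 10 min, then given fluorescent cAMP substrate for 2 h at room temperature. IMAP binding reagent was added for 10–30 min to capture the nucleotide monophosphate product, and fluorescence polarization was read.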

Another assay relates to PDE4. The assay is described as follows: PDE4 Cellular CNG Assay. The format is cell-based. To be noted: HEK293 cells stably expressing the CNG channel. The source says: Compounds may be screened for functional potency in in vitro cellular assays for their ability to inhibit the activity of phosphodiesterase (PDE) enzymes. A commercial membrane potential assay, Molecular Device's membrane potential assay kit, was modified and utilized to measure the inhibitory activity of compounds on PDE isoforms in living cells. The cellular assay utilizes genetically engineered cyclic nucleotide-gated (CNG) channels as cyclic-AMP (cAMP) sensors. On binding cAMP these ion channels open, allowing the flow of cations across the plasma membrane. CNG channel activity can be monitored by measuring Ca^2+influx in cell populations. The influx of Ca causes a change in membrane potential that is measured by voltage sensitive dyes. PDE inhibitors prevent the degradation of cAMP that is generated by adenylyl cyclases that are activated upon stimulation of G protein-coupled receptors (GPCR) linked to the cAMP pathway. In brief, Molecular Device's membrane potential dye was added to HEK293 cells stably expressing the CNG channel and incubated for 2 hours at room temperature. Test compounds were then added to the cells and incubated for 15 minutes. A GPCR agonist was then added to the cells to stimulate the cAMP pathway and incubated for 45 minutes. Fluorescent measurements were then conducted with either the Molecular Devices Acquest or Analyst. PDE inhibitors will inhibit the degradation of cAMP and cause an increase in fluorescent signal. Roflumilast and Rolipram are the positive controls used in the assay.

For another assay, the system named is recombinant human PDE4. Conditions: reported value; read-out: IC50 with respect to inhibiting recombinant human PDE4; cited from earlier work.

Some results are limits rather than exact numbers.

T1 sequence (Q07343 330-659 limits assumed, species assumed): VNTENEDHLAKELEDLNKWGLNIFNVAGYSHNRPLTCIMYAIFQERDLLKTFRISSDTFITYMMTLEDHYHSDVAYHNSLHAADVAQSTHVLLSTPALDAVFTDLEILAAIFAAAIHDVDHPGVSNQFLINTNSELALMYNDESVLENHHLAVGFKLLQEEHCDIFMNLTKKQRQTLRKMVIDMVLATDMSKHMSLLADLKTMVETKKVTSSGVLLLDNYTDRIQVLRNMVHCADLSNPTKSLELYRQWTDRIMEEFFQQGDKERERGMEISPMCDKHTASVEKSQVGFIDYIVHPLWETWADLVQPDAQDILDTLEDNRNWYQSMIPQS

For `COc1ccc(C2=NN(C(=O)c3ccccc3Cl)C(c3ccc(F)cc3)C2)cc1OC` (centres unmarked) [Example 31, (2-chlorophenyl)(3-(3,4-dimethoxyphenyl)-5-(4-fluorophenyl)-4,5-dihydro-1H-pyrazol-1-yl)methanone], at PDE4B, the inhibition at 10 µM is not below 50%. The “PDE4 Cellular CNG Assay Activity at 10 μM” value in the assay with PDE4 was “+ (+ indicates Activity ≧50% at 10 μM)”.

`COc1ccc(C2=NN(C(=O)c3cccs3)C(c3ccccc3F)C2)cc1OC` (centres unmarked) [Example 40, (3-(3,4-dimethoxyphenyl)-5-(2-fluorophenyl)-4,5-dihydro-1H-pyrazol-1-yl)(thiophen-2-yl)methanone] registered an inhibition at 10 µM at PDE4B not below 50%. For the same compound, in the assay with PDE4, the “PDE4 Cellular CNG Assay Activity at 10 μM” value is given as “− (− indicates Activity <50% at 10 μM)”.

The compound `COc1ccc(C2=NN(C(=O)c3cc(OC)c(OC)c(OC)c3)C(c3ccc(F)cc3)C2)cc1OC` (centres unmarked) [Example 42, (3-(3,4-dimethoxyphenyl)-5-(4-fluorophenyl)-4,5-dihydro-1H-pyrazol-1-yl)(3,4,5-trimethoxyphenyl)methanone] registered an inhibition at 10 µM against PDE4B not below 50%. The “PDE4 Cellular CNG Assay Activity at 10 μM” value in the assay with PDE4 is recorded as “+ (+ indicates Activity ≧50% at 10 μM)”.

In turn, `COc1ccc(C2=NN(C(=O)c3cc(OC)c(OC)c(OC)c3)C(c3cccc([N+](=O)[O-])c3)C2)cc1OC` (centres unmarked) [Example 77, (3-(3,4-dimethoxyphenyl)-5-(3-nitrophenyl)-4,5-dihydro-1H-pyrazol-1-yl)(3,4,5-trimethoxyphenyl)methanone] returned an inhibition at 10 µM at PDE4B not below 50%. Besides, the “PDE4 Cellular CNG Assay Activity at 10 μM” value with PDE4 is given as “+ (+ indicates Activity ≧50% at 10 μM)”.

At PDE4B, `COc1ccc(C2=NN(C(C)=O)C(c3ccccc3OC)C2)cc1OC` (centres unmarked) [Example 105, 1-(3-(3,4-dimethoxyphenyl)-5-(2-methoxyphenyl)-4,5-dihydro-1H-pyrazol-1-yl)ethanone] had an inhibition at 10 µM of less than 50%.

Consider `COc1ccc(C2=NN(C(C)=O)C(c3ccccc3)C2)cc1OC` (centres unmarked) [Example 106, 1-(3-(3,4-dimethoxyphenyl)-5-phenyl-4,5-dihydro-1H-pyrazol-1-yl)ethanone], for which the inhibition at 10 µM at PDE4B is less than 50%.

As for `COc1ccc(C2CNC(=O)C2)cc1OC1CCCC1` (centres unmarked) [rolipram], the IC50 with recombinant human PDE4 was approximately 200 nM.

Broadly, the inhibition is how much of the control response was suppressed. Low values mean a response near the control, high ones a response far below the control. For orientation: IC50 means the point on the concentration scale where inhibition reaches its midpoint.
